From the NIST ThermoML archive (doi:10.1016/j.fluid.2012.11.008)
Numbers after ± are expanded uncertainties.

assay: refractive index (Na D-line) (dimensionless); conditions: 293.15 K; 101.33 kPa; Liquid; Standard Abbe refractometry

First: CCC(C)(C)OC [2-methoxy-2-methylbutane]
Second: COC(C)(C)C [2-methoxy-2-methylpropane]
The refractive index of the first is higher: 1.3886 ± 0.0009 for the first, 1.3689 ± 0.0007 for the second.

Going from `CCC=C(C)C` [2-methyl-2-pentene] to `CCOC(C)=O` [ethyl acetate], the refractive index falls from 1.4003 ± 0.0008 to 1.3724 ± 0.0007.

Compared with `CC#N` [acetonitrile], `CO` [methanol] is lower in refractive index: 1.3439 ± 0.0007 for the first, 1.3287 ± 0.0007 for the second.

Going from `CCO` [ethanol] to `CCCCCC` [hexane], the refractive index rises from 1.3618 ± 0.0007 to 1.3752 ± 0.0007.

`CCCCCCC` [heptane] showed a refractive index of 1.3878 ± 0.0007.
